Reference: patent US12419896B2, “Compositions and dosage forms for oral delivery” (RHODES TECHNOLOGIES, priority 2018, dated 2025)

Key:
[1] = most pharmacological tests; Ophthalmic Res. (1992) 24:142-149; cited from earlier work
[2] = versus Δ^9-THC; oxidation to cannabinol, shelf life; cited from earlier work
[3] = Miscibility of sesame oil in 40% IPA/HFA 134a; format: physicochemical; conditions: based on 10% w/v dronabinol in sesame oil
Protocol: In some embodiments, formulations deliver between 0.25 mg and 2 mg dose of dronabinol after application. Table 4 details the % w/w dronabinol required in the canister to achieve such doses for different actuator volumes available ([…]). The miscibility of sesame oil in 40% IPA/HFA 134a has been determined to be 7.2% w/w, equivalent to 0.8% dronabinol, based on 10% w/v dronabinol in sesame oil. Therefore, the dose of dronabinol (mg) produced from each of the difference actuator volumes based on a level of 0.8% w/w dronabinol in canisters has been presented in Table 5.

[4] = cited from earlier work

CCCCCc1cc(O)c2c(c1)OC(C)(C)[C@@H]1CC=C(C)C[C@@H]21 (relative stereo) [Δ^8-THC, (−)-trans-Δ^8-tetrahydrocannabinol]
Potency compared with Δ^9-THC [1]: less potent
Stability compared with Δ^9-THC [2]: more stable

CCCCCc1cc(O)c2c(c1)OC(C)(C)C1CCC(C)=CC21 (single isomer, unassigned; (-)) [dronabinol, (−)-trans-Δ^9-tetrahydrocannabinol]
Level of dronabinol equivalent to the sesame oil miscibility limit [3]: 0.8%
Solubility in water [4]: insoluble
